Measured values as given in PMC11098465, “A comparative analysis of peptide-delivered antisense antibiotics using diverse nucleotide mimics” (RNA, 2024).

Columns and labels:
AcpP::3xFLAG = experiment: Western blot of AcpP::3xFLAG protein levels after ASO treatment; assay type: cell-based, Salmonella enterica serovar Typhimurium SL1344 AcpP::3xFLAG; design: key to AcpP protein reduction: +++: Effect strength is represented by additional (+) signs.; ++: Effect strength is represented by additional (+) signs.; Effect strength is represented by additional (+) signs; conditions: for AcpP protein levels after treatment (in words): KFF-ASO 5 µM, 30, 60, 120 min; for AcpP protein reduction: KFF-ASO constructs at 5 µM, 120 min, summary grade
Description: We have previously shown that PNAs targeting acpP lead to rapid depletion of the target transcript ([Hör et al. 2022]; [Popella et al. 2022]; [Jung et al. 2023]), although this is not a universal phenomenon and varies from transcript to transcript ([Popella et al. 2022]). In other words, an ASO might block target protein synthesis without substantially impacting mRNA levels. Therefore, we wanted to test if the different ASO modalities affect AcpP protein levels in cellulo despite their inability to deplete the acpP transcript. We took advantage of Salmonella expressing a FLAG-tagged AcpP (AcpP::3xFLAG) protein from its native locus. First, we exposed the bacterial cells to PMO and PNA for 30, 60, or 120 min (Fig. 9A) to determine the best time point for our analysis.
Salmonella WT and SL1344 AcpP::3xFLAG were grown overnight in noncation adjusted MHB. Bacterial cultures were diluted 1:100, grown to OD600 0.5, and subsequently diluted to ∼10^6 cfu/mL in MHB. Then, 1.9 mL of each diluted bacterial solution was transferred into 5 mL low-binding tubes, preincubated at 37°C for 10 min, and treated with 100 µL of ASOs to adjust a final concentration of 5 µM. Water was added as negative control. The treatment with PNA and PMO was performed with aeration at 37°C and 220 rpm shaking for 30, 60, and 120 while for all other ASOs, they were treated for 120 min only. Subsequently, the cells were collected by centrifugation at 4°C and 16,000g for 5 min, resuspended in 1× Protein Loading Buffer (62.6 mM Tris–HCl pH 6.8, 2% SDS, 0.1 mg/mL bromophenol blue, 15.4 mg/mL DTT, 10% glycerol) and denatured at 95°C for 10 min.
For detection of AcpP::3xFLAG protein levels, samples were separated on a 12% SDS-PAA gel and transferred onto a nitrocellulose membrane via semi-dry western blotting. The membrane was probed with an α-FLAG antibody (Sigma; 1:1000 in 1× TBS-T containing 3% BSA) at 4°C overnight. After washing in 1× TBS-T, the membrane was incubated with a secondary HRP-conjugated antimouse antibody (Thermo Scientific; 1:5000 in 1× TBS-T containing 1% BSA) at RT for 1 h. Excessive antibody was removed by repeated wash-steps in 1× TBS-T, and the membrane was developed by an Amersham ECL Select Western Blotting Detection Reagent Kit (Cytiva).

Salmonella periplasm = experiment: MALDI-TOF-based analysis of ASO-peptide conjugate uptake; assay type: cell-based; design: key to Uptake inside bacteria (MS): +++: Effect strength is represented by additional (+) signs.; ++: Effect strength is represented by additional (+) signs.; Effect strength is represented by additional (+) signs; conditions: 15 min; for Detection in the periplasmic fraction (in words): 10 µM KFF-ASO conjugates, MALDI MS; for Uptake inside bacteria (MS): ASO conjugated to the carrier peptide, 10 µM, MALDI-TOF of periplasm, summary grade
Procedure: Finally, to directly test if the ASO conjugates translocate into Salmonella, we used MALDI mass-spectrometry (MS) to identify ASO fragments in the bacterial periplasm after treatment with 10 µM KFF-ASO conjugates for 15 min (Table 2; Supplemental Figs. S7 and S8). […] This is in line with a study that reported that the KFF peptide is cleaved within the periplasm before translocation into the cytoplasm ([Yavari et al. 2021]). […] Importantly, none of the negASOs were detected in this subcellular fraction (Supplemental Fig. S8), likely explaining the lack of antibacterial effects against Salmonella.
The experiments were performed by modifying previously published protocols ([Yavari et al. 2021]). From an overnight culture of Salmonella, a second culture was inoculated (1:100) and grown to OD600 of 0.5 (corresponding to ∼2 × 10^8 cfu/mL). These bacterial cells were washed twice in MHB and resuspended in 95 µL of MHB with an additional incubation at 37°C for 5–10 min. Sterile ASO-peptide conjugates were prepared at concentrations of 200 µM. Five microliters of the 200 µM working solutions were added to 95 µL of bacteria in culture media, leading to a final concentration of the compounds of 10 µM. Five microliters of H2O was added as a negative control. The tubes were incubated at 37°C for 15 min with shaking at 300 rpm. Subsequently, they were centrifuged at 8000g for 5 min at 4°C. The supernatant was aspirated, and the pellet was washed with 0.01 M Tris-HCl before being resuspended in 200 µL of 0.01M Tris-HCl containing 0.5 M Sucrose, 150 µg/mL lysozyme, 10 mM EDTA and incubated at 37°C overnight. These tubes were then centrifuged at 2000g at 4°C for 10 min. The supernatant obtained represents the periplasm. The periplasm fragment was then mixed with 2,6-Dihydroxyacetophenone (DHAP) in ACN 1:1, spotted on a MALDI plate, and analyzed for MALDI-TOF-MS in a Bruker DaltonicsUltrafleXtreme Instrument. The experiment was performed two times, and data of one representative experiment are shown.

Row | Substance | AcpP protein levels after treatment (in words) (AcpP::3xFLAG) | AcpP protein reduction (AcpP::3xFLAG) | Detection in the periplasmic fraction (in words) (Salmonella periplasm) | Uptake inside bacteria (MS) (Salmonella periplasm) | Fragments detected (Salmonella periplasm; periplasm, 10 µM KFF-ASO conjugate, MALDI-TOF-MS)
1 | PNA: peptide nucleic acid 10mer ASO, sequence CTCATACTCT, targeting acpP −5 to +5 (all peptide nucleic acid (PNA)) | depletion in AcpP levels can be observed from 60 min post-treatment onward | ++ | detected in the periplasmic fraction | + | –
2 | PMO: phosphorodiamidate morpholino 10mer ASO, sequence CTCATACTCT, targeting acpP −5 to +5 (all phosphorodiamidate morpholino (PMO)) | gradual depletion of AcpP, albeit less pronounced than PNA | + | detected in the periplasmic fraction | + | only the PMO fragment was observed in the periplasm
